Reference: patent EP1202975B1, “SUBSTITUTED POLYCYCLIC ARYL AND HETEROARYL PYRAZINONES USEFUL FOR SELECTIVE INHIBITION OF THE COAGULATION CASCADE” (Pharmacia Corporation, priority 1999, dated 2000)
Where two headings read alike, the source gives them in different places.

Experiments:
[1] = target: T1, TF-VIIa (Homo sapiens, UniProt P08709); test: TF-VIIa Assay; type: biochemical
T1 construct: 2nM recombinant human factor VIIa; purchased American Diagnostica, Greenwich CT; host or cells: soluble TF made in house in E. coli
T1 sequence (P08709 213-466 limits assumed): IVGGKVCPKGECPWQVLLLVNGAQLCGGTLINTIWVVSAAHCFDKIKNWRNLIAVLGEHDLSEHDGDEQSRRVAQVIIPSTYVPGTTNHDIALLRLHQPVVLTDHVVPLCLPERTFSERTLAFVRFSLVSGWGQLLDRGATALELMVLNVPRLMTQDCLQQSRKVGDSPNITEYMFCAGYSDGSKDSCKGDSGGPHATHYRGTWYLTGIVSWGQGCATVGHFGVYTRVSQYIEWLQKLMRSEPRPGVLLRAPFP
T1 sequence (P08709 61-212 limits assumed): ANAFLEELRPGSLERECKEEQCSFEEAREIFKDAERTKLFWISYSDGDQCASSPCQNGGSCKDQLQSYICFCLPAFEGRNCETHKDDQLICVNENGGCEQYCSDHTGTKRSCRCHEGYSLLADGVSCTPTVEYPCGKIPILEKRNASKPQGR
T1 sequence (P13726 33-251 partner limits assumed): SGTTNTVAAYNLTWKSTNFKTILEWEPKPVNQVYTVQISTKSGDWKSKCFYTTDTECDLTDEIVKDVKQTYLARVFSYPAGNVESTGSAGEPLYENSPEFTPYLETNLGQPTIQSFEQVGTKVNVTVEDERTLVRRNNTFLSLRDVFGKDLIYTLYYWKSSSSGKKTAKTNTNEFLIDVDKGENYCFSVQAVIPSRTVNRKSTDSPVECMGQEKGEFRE

[2] = target: Human factor Xa (Homo sapiens, UniProt P00742)
Human factor Xa, sequence (P00742 235-488 limits assumed): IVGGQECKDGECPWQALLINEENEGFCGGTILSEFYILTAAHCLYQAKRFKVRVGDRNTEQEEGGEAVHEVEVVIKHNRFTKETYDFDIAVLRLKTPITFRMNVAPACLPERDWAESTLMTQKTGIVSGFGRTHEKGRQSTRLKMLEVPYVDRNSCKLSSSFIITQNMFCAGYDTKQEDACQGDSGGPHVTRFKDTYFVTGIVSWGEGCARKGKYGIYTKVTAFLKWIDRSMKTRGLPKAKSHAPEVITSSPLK
Human factor Xa, sequence (P00742 41-179 limits assumed): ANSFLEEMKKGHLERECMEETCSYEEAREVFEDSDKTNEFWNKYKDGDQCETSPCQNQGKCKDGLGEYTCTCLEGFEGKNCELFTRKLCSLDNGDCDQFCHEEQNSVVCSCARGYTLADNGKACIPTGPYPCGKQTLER

[3] = read-out: IC50 or % Inhibition TF-VIIa (30 µM); cells given as a plain number (IC50)
[4] = cells given as a plain number (IC50); read-out: IC50 or % Inhibition TF-VIIa (30 µM)

Row | SMILES | IC50 [1, 3] [µM] | IC50 or % Inhibition Factor Xa (30 µM) [2] [%] | IC50 [1, 4] [µM] | IC50 or % Inhibition TF-VIIa (30 µM) [1] [%] | % Inhibition Factor Xa (100 µM) [2] [%]
1 | Cc1c(Cl)nc(NCc2ccccc2)c(=O)n1CC(=O)NCc1ccc(C(=N)N)cc1 [1471-1] | 8.17 | 10 |  |  | 
2 | Cc1c(Cl)nc(NCCc2ccc(Cl)cc2)c(=O)n1CC(=O)NCc1ccc(C(=N)N)cc1 [1471-2] | 3.62 | 10 |  |  | 
3 | Cc1c(Cl)nc(NCc2ccncc2)c(=O)n1CC(=O)NCc1ccc(C(=N)N)cc1 [1471-3] | 13.6 | 0 |  |  | 
4 | Cc1c(Cl)nc(NCCN2CCOCC2)c(=O)n1CC(=O)NCc1ccc(C(=N)N)cc1 [1471-4] | 29.4 | 0 |  |  | 
5 | Cc1c(Cl)nc(NCCc2ccncc2)c(=O)n1CC(=O)NCc1ccc(C(=N)N)cc1 [1471-5] | 8.69 | 12 |  |  | 
6 | Cc1c(Cl)nc(NCCc2cccc(Cl)c2)c(=O)n1CC(=O)NCc1ccc(C(=N)N)cc1 [1471-6] | 2.85 | 14 |  |  | 
7 | Cc1c(Cl)nc(NCCc2ccccc2)c(=O)n1CC(=O)NCc1ccc(C(=N)N)cc1 [1471-7] |  | 4 | 4.28 |  | 
8 | Cc1c(Cl)nc(NCCc2cccnc2)c(=O)n1CC(=O)NCc1ccc(C(=N)N)cc1 [1471-8] | 3.86 | 27 |  |  | 
9 | N=C(N)c1ccc(CNC(=O)Cn2c(-c3ccccc3)c(Cl)nc(NCc3ccccc3)c2=O)cc1 [1471-9] |  | 29 | 0.77 |  | 
10 | N=C(N)c1ccc(CNC(=O)Cn2c(-c3ccccc3)c(Cl)nc(NCCc3ccc(Cl)cc3)c2=O)cc1 [1471-10] |  | 45 | 0.6 |  | 
11 | N=C(N)c1ccc(CNC(=O)Cn2c(-c3ccccc3)c(Cl)nc(NCc3ccncc3)c2=O)cc1 [1471-11] | 1.69 | 9 |  |  | 
12 | N=C(N)c1ccc(CNC(=O)Cn2c(-c3ccccc3)c(Cl)nc(NCCN3CCOCC3)c2=O)cc1 [1471-12] |  | 9 | 7.97 |  | 
13 | N=C(N)c1ccc(CNC(=O)Cn2c(-c3ccccc3)c(Cl)nc(NCCc3cccnc3)c2=O)cc1 [1471-16] | 0.82 | 23 |  |  | 
14 | N=C(N)c1ccc(CNC(=O)Cn2c(-c3ccc(Cl)cc3)c(Cl)nc(NCCc3ccc(Cl)cc3)c2=O)cc1 [1471-18] | 11.2 | 26 |  |  | 
15 | N=C(N)c1ccc(CNC(=O)Cn2c(-c3ccc(Cl)cc3)c(Cl)nc(NCc3ccncc3)c2=O)cc1 [1471-19] |  | 26 |  | 33 | 
16 | N=C(N)c1ccc(CNC(=O)Cn2c(-c3ccc(Cl)cc3)c(Cl)nc(NCCN3CCOCC3)c2=O)cc1 [1471-20] |  | 34 |  | 42 | 
17 | N=C(N)c1ccc(CNC(=O)Cn2c(-c3ccc(Cl)cc3)c(Cl)nc(NCCc3cccc(Cl)c3)c2=O)cc1 [1471-22] | 14.6 | 28 |  |  | 
18 | N=C(N)c1ccc(CNC(=O)Cn2c(-c3ccc(Cl)cc3)c(Cl)nc(NCCc3ccccc3)c2=O)cc1 [1471-23] |  | 36 | 8.88 |  | 
19 | N=C(N)c1ccc(CNC(=O)Cn2c(-c3cccc(Cl)c3)c(Cl)nc(NCc3ccncc3)c2=O)cc1 [1471-27] | 4.19 | 16 |  |  | 
20 | N=C(N)c1ccc(CNC(=O)Cn2c(-c3cccc(Cl)c3)c(Cl)nc(NCCN3CCOCC3)c2=O)cc1 [1471-28] | 7.22 | 8 |  |  | 
21 | N=C(N)c1ccc(CNC(=O)Cn2c(-c3cccc(Cl)c3)c(Cl)nc(NCCc3ccncc3)c2=O)cc1 [1471-29] | 2.18 | 21 |  |  | 
22 | N=C(N)c1ccc(CNC(=O)Cn2c(-c3cccc(Cl)c3)c(Cl)nc(NCCc3cccc(Cl)c3)c2=O)cc1 [1471-30] | 0.83 | 41 |  |  | 
23 | N=C(N)c1ccc(CNC(=O)Cn2c(-c3cccc(Cl)c3)c(Cl)nc(NCCc3ccccc3)c2=O)cc1 [1471-31] |  | 17 | 1.98 |  | 
24 | N=C(N)c1ccc(CNC(=O)Cn2c(-c3cccc(Cl)c3)c(Cl)nc(NCCc3cccnc3)c2=O)cc1 [1471-32] | 1.19 | 25 |  |  | 
25 | COc1ccc(-c2c(Cl)nc(NCc3ccccc3)c(=O)n2CC(=O)NCc2ccc(C(=N)N)cc2)cc1 [1471-33] |  | 22 |  | 31 | 
26 | COc1ccc(-c2c(Cl)nc(NCCc3ccc(Cl)cc3)c(=O)n2CC(=O)NCc2ccc(C(=N)N)cc2)cc1 [1471-34] | 17.5 | 24 |  |  | 
27 | COc1ccc(-c2c(Cl)nc(NCc3ccncc3)c(=O)n2CC(=O)NCc2ccc(C(=N)N)cc2)cc1 [1471-35] |  | 22 |  | 37 | 
28 | COc1ccc(-c2c(Cl)nc(NCCN3CCOCC3)c(=O)n2CC(=O)NCc2ccc(C(=N)N)cc2)cc1 [1471-36] |  | 6 |  | 11 | 

Row | SMILES | IC50 [1, 3] [µM] | IC50 or % Inhibition Factor Xa (30 µM) [2] [%] | IC50 [1, 4] [µM] | IC50 or % Inhibition TF-VIIa (30 µM) [1] [%] | % Inhibition Factor Xa (100 µM) [2] [%]
29 | COc1ccc(-c2c(Cl)nc(NCCc3ccncc3)c(=O)n2CC(=O)NCc2ccc(C(=N)N)cc2)cc1 [1471-37] |  | 7 |  | 39 | 
30 | COc1ccc(-c2c(Cl)nc(NCCc3cccnc3)c(=O)n2CC(=O)NCc2ccc(C(=N)N)cc2)cc1 [1471-40] |  | 11 |  | 40 | 
31 | N=C(N)c1ccc(CNC(=O)Cn2c(-c3ccc4c(c3)OCO4)c(Cl)nc(NCc3ccccc3)c2=O)cc1 [1471-41] | 18.3 | 34 |  |  | 
32 | N=C(N)c1ccc(CNC(=O)Cn2c(-c3ccc4c(c3)OCO4)c(Cl)nc(NCCc3ccc(Cl)cc3)c2=O)cc1 [1471-42] | 10.5 | 15 |  |  | 
33 | N=C(N)c1ccc(CNC(=O)Cn2c(-c3ccc4c(c3)OCO4)c(Cl)nc(NCc3ccncc3)c2=O)cc1 [1471-43] | 25.3 | 18 |  |  | 
34 | N=C(N)c1ccc(CNC(=O)Cn2c(-c3ccc4c(c3)OCO4)c(Cl)nc(NCCN3CCOCC3)c2=O)cc1 [1471-44] |  | 13 |  | 34 | 
35 | N=C(N)c1ccc(CNC(=O)Cn2c(-c3ccc4c(c3)OCO4)c(Cl)nc(NCCc3ccncc3)c2=O)cc1 [1471-45] | 13.2 | 24 |  |  | 
36 | N=C(N)c1ccc(CNC(=O)Cn2c(-c3ccc4c(c3)OCO4)c(Cl)nc(NCCc3cccc(Cl)c3)c2=O)cc1 [1471-46] | 13 | 21 |  |  | 
37 | N=C(N)c1ccc(CNC(=O)Cn2c(-c3ccc4c(c3)OCO4)c(Cl)nc(NCCc3ccccc3)c2=O)cc1 [1471-47] | 12.6 | 22 |  |  | 
38 | N=C(N)c1ccc(CNC(=O)Cn2c(-c3ccc4c(c3)OCO4)c(Cl)nc(NCCc3cccnc3)c2=O)cc1 [1471-48] | 15.7 | 17 |  |  | 
39 | CCc1c(Cl)nc(NCCc2ccc(Cl)cc2)c(=O)n1CC(=O)NCc1ccc(C(=N)N)cc1 [1471-58] | 12.4 | 0 |  |  | 
40 | CCc1c(Cl)nc(NCc2ccncc2)c(=O)n1CC(=O)NCc1ccc(C(=N)N)cc1 [1471-59] | 7.52 | 0 |  |  | 
41 | CCc1c(Cl)nc(NCCN2CCOCC2)c(=O)n1CC(=O)NCc1ccc(C(=N)N)cc1 [1471-60] | 13 | 0 |  |  | 
42 | CCc1c(Cl)nc(NCCc2ccncc2)c(=O)n1CC(=O)NCc1ccc(C(=N)N)cc1 [1471-61] | 5 | 0 |  |  | 
43 | CCc1c(Cl)nc(NCCc2cccc(Cl)c2)c(=O)n1CC(=O)NCc1ccc(C(=N)N)cc1 [1471-62] |  | 0 |  | 4 | 
44 | CCc1c(Cl)nc(NCCc2ccccc2)c(=O)n1CC(=O)NCc1ccc(C(=N)N)cc1 [1471-63] |  | 2 | 3.45 |  | 
45 | CCc1c(Cl)nc(NCCc2cccnc2)c(=O)n1CC(=O)NCc1ccc(C(=N)N)cc1 [1471-64] | 3.02 | 2 |  |  | 
46 | N=C(N)c1ccc(CNC(=O)Cn2c(-c3ccc(-c4ccccc4)cc3)c(Cl)nc(NCc3ccncc3)c2=O)cc1 [1471-67] |  | 16 |  | 12 | 
47 | N=C(N)c1ccc(CNC(=O)Cn2c(-c3ccc(-c4ccccc4)cc3)c(Cl)nc(NCCc3cccc(Cl)c3)c2=O)cc1 [1471-70] |  | 12 |  | 10 | 
48 | N=C(N)c1ccc(CNC(=O)Cn2c(-c3ccc(-c4ccccc4)cc3)c(Cl)nc(NCCc3ccccc3)c2=O)cc1 [1471-71] |  | 0 |  | 6 | 
49 | N=C(N)c1ccc(CNC(=O)Cn2c(-c3ccc(-c4ccccc4)cc3)c(Cl)nc(NCCc3cccnc3)c2=O)cc1 [1471-72] |  | 22 |  | 15 | 
50 | N=C(N)c1ccc(CNC(=O)Cn2c(-c3ccccc3)c(Cl)nc(NC3CCc4ccccc43)c2=O)cc1 (stereo not drawn) [1507-02] | 9.4 | 9 |  |  | 
51 | N=C(N)c1ccc(CNC(=O)Cn2c(-c3ccccc3)c(Cl)nc(NCc3ccccc3Cl)c2=O)cc1 [1507-03] | 3.6 | 21 |  |  | 
52 | N=C(N)c1ccc(CNC(=O)Cn2c(-c3ccccc3)c(Cl)nc(NCCCn3ccnc3)c2=O)cc1 [1507-05] | 4.7 | 10 |  |  | 
53 | N=C(N)c1ccc(CNC(=O)Cn2c(-c3ccccc3)c(Cl)nc(NC3Cc4ccccc4C3)c2=O)cc1 [1507-08] |  | 1 |  | 7 | 
54 | O=C(Cn1c(-c2ccc(-c3ccccc3)cc2)c(Cl)nc(NCCc2cccc(Cl)c2)c1=O)NCCc1cccnc1 [Example E-0116] |  |  |  |  | 4
55 | O=C(Cn1c(-c2ccc(-c3ccccc3)cc2)c(Cl)nc(NCCc2ccc(Cl)cc2)c1=O)NCCc1cccnc1 [Example E-0119] |  |  |  |  | 5
